From patent US20110028455A1, “Indole-substituted 3-cyanopyridines As Kinase Inhibitors” (Wyeth LLC, priority 2007, published 2011)
Where two headings read alike, the source gives them in different places.

Legend:
[1] = Metabolic stability in rat liver microsomes; format: in vitro ADME; settings: 30 minutes incubation, remaining compound by HPLC
Method: In order to probe the metabolic stability of the compounds of the invention, a series of compounds were selected for stability testing in rat liver microsomes. A DMSO solution of each compound was incubated for 30 minutes in the presence of rat liver homogenate. The percentage of remaining compound was assessed by HPLC. An approximate half life was calculated from the percentage of remaining compound. Table II, below, illustrates a comparison of the in vitro microsomal half life of the selected compounds verses a series of related compounds lacking the C-6 alkyl group. […] It is generally accepted in the industry that improved in vitro metabolic stability frequently translates into improved in vivo metabolic stability. Improved metabolic stability may translate to increased in vivo exposure levels.

[2] = target: T1, human PKCθ full length enzyme (Homo sapiens, UniProt Q04759); test: PKCθ IMAP Assay; format: biochemical; settings: PKCθ 1 nM; ATP 6 μM; peptide 100 nM; DMSO 5%; 25 minutes at room temperature; FP readout; read-out: PKC-Theta Mean IC50
T1 construct: human PKCθ full length enzyme (Panvera Cat# P2996); purchased Panvera P2996
T1 sequence (Q04759 whole entry): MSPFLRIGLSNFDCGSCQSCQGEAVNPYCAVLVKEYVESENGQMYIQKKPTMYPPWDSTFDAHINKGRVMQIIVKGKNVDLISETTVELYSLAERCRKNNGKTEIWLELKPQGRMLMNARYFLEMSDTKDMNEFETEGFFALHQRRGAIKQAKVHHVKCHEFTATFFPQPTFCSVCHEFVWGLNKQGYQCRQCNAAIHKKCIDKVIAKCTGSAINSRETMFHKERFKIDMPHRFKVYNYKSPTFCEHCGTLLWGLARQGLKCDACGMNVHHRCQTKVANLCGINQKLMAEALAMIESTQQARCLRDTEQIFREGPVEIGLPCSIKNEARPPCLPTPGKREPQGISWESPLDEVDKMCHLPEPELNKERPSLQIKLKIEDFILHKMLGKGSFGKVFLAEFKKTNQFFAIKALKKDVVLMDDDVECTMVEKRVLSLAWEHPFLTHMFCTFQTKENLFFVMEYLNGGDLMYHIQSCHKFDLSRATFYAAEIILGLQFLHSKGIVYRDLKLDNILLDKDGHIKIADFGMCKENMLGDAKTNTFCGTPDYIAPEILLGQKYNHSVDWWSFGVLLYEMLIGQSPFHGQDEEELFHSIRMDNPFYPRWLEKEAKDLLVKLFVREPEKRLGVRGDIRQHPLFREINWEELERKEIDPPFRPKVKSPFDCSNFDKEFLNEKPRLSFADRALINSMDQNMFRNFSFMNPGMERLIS
Method: The materials used include the following: human PKCθ full length enzyme (Panvera Cat# P2996); substrate peptide: 5FAM-RFARKGSLRQKNV-OH (Molecular Devices, RP7032); ATP (Sigma Cat # A2383); DTT (Pierce, 20291); 5× kinase reaction buffer (Molecular Devices, R7209); 5× binding buffer A (Molecular Devices, R7282), 5× binding buffer B (Molecular Devices, R7209); IMAP Beads (Molecular Devices, R7284); and 384-well plates (Corning Costar, 3710).
The reaction buffer was prepared by diluting the 5× stock reaction buffer and adding DTT to obtain a concentration of 3.0 mM. The binding buffer was prepared by diluting the 5× binding buffer A. A master mix solution was prepared using a 90% dilution of the reaction buffer containing 2×ATP (12 uM) and 2× peptide (200 nm). Compounds were diluted in DMSO to 20× of the maximum concentration for the IC50 measurement. 27 μl of the master mix solution for each IC50 curve was added to the first column in a 384-well plate and 3 μl of 20× compound in DMSO was added to each well.
The final concentration of compound was 2× and 10% DMSO. DMSO was added to the rest of the master mix to increase the concentration to 10%. 10 μl of the master mix containing 10% DMSO was added to the rest of the wells on the plate except the 2nd column. 20 μl was transferred from the first column to the 2nd column. The compounds were serially diluted in 2:1 ratio starting from the 2nd column. A 2×(2 nM) PKCθ solution was made in the reaction buffer. 10 μl of the PKCθ solution was added to every well to achieve these final concentrations: PKCθ-1 nM; ATP-6 μM; peptide-100 nM; DMSO-5%. Samples were incubated for 25 minutes at room temperature. The binding reagent was prepared by diluting the beads in 1× binding buffer to 800:1. 50 μl of the binding reagent was added to every well and incubated for 20 minutes. FP was measured using Envision2100 (PerkinElmer Life Sciences). Wells with no ATP and wells with no enzyme were used as controls.

[3] = related compounds lacking the C-6 alkyl group, read-out: Rat Microsome Stability of 6-H cyanopyridine Compounds (approximate half life)
[4] = 6-Me compounds of the invention, read-out: Rat Microsome Stability of 6-Me cyanopyridine Compounds (approximate half life)

| Molecule | half-life [1, 3] [min] | IC50 [2] [µM] | half-life [1, 4] [min] | other results |
| --- | --- | --- | --- | --- |
| Cc1c(Nc2c(C#N)cncc2-c2ccc(OCCN3CCC(N4CCOCC4)CC3)cc2)ccc2[nH]ccc12 | 10 |  |  |  |
| Cc1c(Nc2c(C#N)cncc2-c2ccc(OCCN3CCC(c4ccccc4)CC3)cc2)ccc2[nH]ccc12 | 5 |  |  |  |
| Cc1c(Nc2c(C#N)cncc2-c2ccc(OCCNCc3ccccn3)cc2)ccc2[nH]ccc12 | 3 |  |  |  |
| Cc1c(Nc2c(C#N)cncc2-c2ccc(OCCNCCCn3ccnc3)cc2)ccc2[nH]ccc12 | 22 |  |  |  |
| Cc1c(Nc2c(C#N)cncc2-c2ccc(OCCNCc3ccccc3)cc2)ccc2[nH]ccc12 | 6 |  |  |  |
| Cc1c(Nc2c(C#N)cncc2-c2ccc(OCCN3CCC(N4CCCC4)CC3)cc2)ccc2[nH]ccc12 | > 30 |  |  |  |
| Cc1c(Nc2c(C#N)cncc2-c2ccc(OCCN3CCOCC3)cc2)ccc2[nH]ccc12 | 8 |  |  |  |
| Cc1c(Nc2c(C#N)cncc2-c2ccc(OCCNC3CCN(C)CC3)cc2)ccc2[nH]ccc12 | > 30 |  |  |  |
| Cc1c(Nc2c(C#N)cncc2-c2ccc(OCCNCC3CCN(C)CC3)cc2)ccc2[nH]ccc12 | > 30 |  |  |  |
| Cc1c(Nc2c(C#N)cncc2-c2ccc(OCCN3CCCC3)cc2)ccc2[nH]ccc12 | 21 |  |  |  |
| CCOCCNCCOc1ccc(-c2cncc(C#N)c2Nc2ccc3[nH]ccc3c2C)cc1 | 7 |  |  |  |
| 5-{4-[2-(4-cyclopentylpiperazin-1-yl)ethoxy]phenyl}-6-methyl-4-[(4-methyl-1H-indol-5-yl)amino]nicotinonitrile [Example 37] |  | 0.03 |  | Rat Microsome Stability of 6-Me cyanopyridine Compounds (approximate half life) ([1]; 6-Me compounds of the invention): >30 min |
| COc1ccc(-c2c(C)ncc(C#N)c2Nc2cccc3[nH]ccc23)cc1OC [Example 8, 5-(3,4-dimethoxyphenyl)-4-(1H-indol-4-ylamino)-6-methylnicotinonitrile] |  | 0.151 |  | melting point: 182 to 183 °C |
| COc1ccc(-c2c(C)ncc(C#N)c2Nc2ccc3[nH]ccc3c2C)cc1OC [Example 9, 5-(3,4-dimethoxyphenyl)-6-methyl-4-[(4-methyl-1H-indol-5-yl)amino]nicotinonitrile] |  | 0.067 |  | melting point: 202 to 203 °C |
| Cc1ncc(C#N)c(Nc2ccc3[nH]ccc3c2C)c1-c1ccc(OCCNCCCn2ccnc2)cc1 [Example 38, 5-[4-(2-{[3-(1H-imidazol-1-yl)propyl]amino}ethoxy)phenyl]-6-methyl-4-[(4-methyl-1H-indol-5-yl)amino]nicotinonitrile] |  | 0.014 | > 30 |  |
| Cc1ncc(C#N)c(Nc2ccc3[nH]ccc3c2C)c1-c1ccc(OCCNCc2ccccc2)cc1 [Example 39, 5-{4-[2-(benzylamino)ethoxy]phenyl}-6-methyl-4-[(4-methyl-1H-indol-5-yl)amino]nicotinonitrile] |  | 0.073 | 14 |  |
| Cc1ncc(C#N)c(Nc2ccc3[nH]ccc3c2C)c1-c1ccc(OCCNCc2ccccn2)cc1 [Example 40, 6-methyl-4-[(4-methyl-1H-indol-5-yl)amino]-5-(4-{2-[(pyridin-2-ylmethyl)amino]ethoxy}phenyl)nicotinonitrile] |  | 0.029 | 13 |  |
| Cc1ncc(C#N)c(Nc2ccc3[nH]ccc3c2C)c1-c1ccc(CN2CCN(C)CC2)o1 [Example 68, 6-methyl-4-[(4-methyl-1H-indol-5-yl)amino]-5-{5-[(4-methylpiperazin-1-yl)methyl]furan-2-yl}pyridine-3-carbonitrile] |  | 0.02 |  |  |
| Cc1ncc(C#N)c(Nc2ccc3[nH]ccc3c2C)c1-c1ccc(C=O)s1 [Example 69, 5-(5-formylthiophen-2-yl)-6-methyl-4-[(4-methyl-1H-indol-5-yl)amino]pyridine-3-carbonitrile] |  | 0.0048 |  |  |
| Cc1ncc(C#N)c(Nc2ccc3[nH]ccc3c2C)c1-c1ccc(CN2CCN(C)CC2)s1 [Example 70, 6-methyl-4-[(4-methyl-1H-indol-5-yl)amino]-5-{5-[(4-methylpiperazin-1-yl)methyl]thiophen-2-yl}pyridine-3-carbonitrile] |  | 0.014 |  |  |

Now from value to molecule, other results behind:

| half-life [1, 3] [min] | IC50 [2] [µM] | half-life [1, 4] [min] | Molecule | other results |
| --- | --- | --- | --- | --- |
| > 30 |  |  | Cc1c(Nc2c(C#N)cncc2-c2ccc(OCCN3CCN(CCN(C)C)CC3)cc2)ccc2[nH]ccc12 |  |
| 11 |  |  | Cc1c(Nc2c(C#N)cncc2-c2ccc(OCCN3CCN(CCO)CC3)cc2)ccc2[nH]ccc12 |  |
| 8 |  |  | CCN1CCN(CCOc2ccc(-c3cncc(C#N)c3Nc3ccc4[nH]ccc4c3C)cc2)CC1 |  |
| 14 |  |  | Cc1c(Nc2c(C#N)cncc2-c2ccc(OCCN3CCN(C)CC3)cc2)ccc2[nH]ccc12 |  |
|  | 0.046 | > 30 | CCOCCNCCOc1ccc(-c2c(C)ncc(C#N)c2Nc2ccc3[nH]ccc3c2C)cc1 [Example 19, 5-(4-{2-[(2-ethoxyethyl)amino]ethoxy}phenyl)-6-methyl-4-[(4-methyl-1H-indol-5-yl)amino]nicotinonitrile] |  |
|  | 0.025 | > 30 | Cc1ncc(C#N)c(Nc2ccc3[nH]ccc3c2C)c1-c1ccc(OCCN2CCCC2)cc1 [Example 20, 6-methyl-4-[(4-methyl-1H-indol-5-yl)amino]-5-[4-(2-pyrrolidin-1-ylethoxy)phenyl]nicotinonitrile] |  |
|  | 0.009 | > 30 | Cc1ncc(C#N)c(Nc2ccc3[nH]ccc3c2C)c1-c1ccc(OCCNC2CCN(C)CC2)cc1 [Example 22, 6-methyl-4-[(4-methyl-1H-indol-5-yl)amino]-5-(4-{2-[(1-methylpiperidin-4-yl)amino]ethoxy}phenyl)nicotinonitrile] |  |
|  | 0.008 | > 30 | Cc1ncc(C#N)c(Nc2ccc3[nH]ccc3c2C)c1-c1ccc(OCCNCC2CCN(C)CC2)cc1 [Example 23, 6-methyl-4-[(4-methyl-1H-indol-5-yl)amino]-5-[4-(2-{[(1-methylpiperidin-4-yl)methyl]amino}ethoxy)phenyl]nicotinonitrile] |  |
|  | 0.272 | 20 | Cc1ncc(C#N)c(Nc2ccc3[nH]ccc3c2C)c1-c1ccc(OCCN2CCC(c3ccccc3)CC2)cc1 [Example 29, 6-methyl-4-[(4-methyl-1H-indol-5-yl)amino]-5-{4-[2-(4-phenylpiperidin-1-yl)ethoxy]phenyl}nicotinonitrile] |  |
|  | 0.124 | 17 | Cc1ncc(C#N)c(Nc2ccc3[nH]ccc3c2C)c1-c1ccc(OCCN2CCOCC2)cc1 [Example 30, 6-methyl-4-[(4-methyl-1H-indol-5-yl)amino]-5-[4-(2-morpholin-4-ylethoxy)phenyl]nicotinonitrile] |  |
|  | 0.044 | > 30 | CCN1CCN(CCOc2ccc(-c3c(C)ncc(C#N)c3Nc3ccc4[nH]ccc4c3C)cc2)CC1 [Example 33, 5-{4-[2-(4-ethylpiperazin-1-yl)ethoxy]phenyl}-6-methyl-4-[(4-methyl-1H-indol-5-yl)amino]nicotinonitrile] |  |
|  | 0.044 | > 30 | Cc1ncc(C#N)c(Nc2ccc3[nH]ccc3c2C)c1-c1ccc(OCCN2CCN(CCO)CC2)cc1 [Example 35, 5-(4-{2-[4-(2-hydroxyethyl)piperazin-1-yl]ethoxy}phenyl)-6-methyl-4-[(4-methyl-1H-indol-5-yl)amino]nicotinonitrile] |  |
|  | 0.033 | > 30 | Cc1ncc(C#N)c(Nc2ccc3[nH]ccc3c2C)c1-c1ccc(OCCN2CCN(CCN(C)C)CC2)cc1 [Example 36, 5-[4-(2-{4-[2-(dimethylamino)ethyl]piperazin-1-yl}ethoxy)phenyl]-6-methyl-4-[(4-methyl-1H-indol-5-yl)amino]nicotinonitrile] |  |
